The record followed here is patent publication US20250000818A1, “NEW SYNERGISTIC COMBINATIONS BASED ON FENM AND AN ACETYLCHOLINESTERASE INHIBITOR” (REST Therapeutics, priority 2021, published 2025).

The test system of test [1] is mice intoxicated with Aβ25-35 oligomers. In words: Passive avoidance test (PAT), long-term contextual memory, Aβ25-35 oligomer ICV intoxication model. The format is in vivo, male Swiss OF-1 mice.
Protocol: (§1) In vivo experiments were conducted on male Swiss OF-1 mice (January, St Berthevin, France) aged 7 to 9 weeks with a mass of 32±2 g. The animals are housed in groups of 8 to 10 individuals in plastic cages with free access to food and drink, in a controlled environment (12:00 day/night cycle, the light is switched on at 7:00 a.m. and the behavioral experiments take place between 9:00 a.m. and 5:00 p.m.), under controlled atmosphere and sound environment.
FENM was obtained from M2i Life Sciences (Saint-Cloud, France). The stock solutions of the compounds were obtained by dissolution in NaCl buffer (0.9%, vehicle) at a concentration of 2 mg/mL which corresponds to a dose of 5 mg/Kg. These stock solutions are stored at 4° C. for 2 weeks maximum.
(§2) The vehicle solution or the control peptide are subjected to the same treatment before administration.
The compounds are IP administered in a volume of 100 μL per 20 g of body mass. […] The doses of compounds mentioned in the experimental part correspond to the doses of salts of the used compounds and not to the mass equivalent of the compound itself. For each compound, the administered doses are 0.01, 0.03, 0.1, 0.3 and 1 mg/kg.
(§3) The ability of the compounds and their combination to decrease the cognitive symptoms of neurodegeneration induced by the Aβ25-35 oligomers is tested. For this purpose, the administration of the test compounds takes place on the same day as the injection of the Aβ25-35 oligomers and continues on a daily basis until day 7 after the injection of the Aβ25-35 oligomers; the mice are then subjected to YMT tests, or PAT on day 8 after the injection of the Aβ25-35 oligomers.
This test measures the long-term non-space (contextual) memory. The device used for this test is a box with two compartments (15×20×15 cm high), one illuminated with white PVC walls and the other in the dark with black PVC walls and a mesh floor. A guillotine door separates the compartments. A 60 W lamp is positioned 40 cm above the box and illuminates the white compartment. Electrical shocks (0.3 mA for 3 s) may be applied to the grid floor via a generator (Lafayette Instruments, Lafayette, USA). The test consists of a learning session and a test session. The guillotine door is closed during the training session. Each mouse is placed in the white compartment. After 5 seconds, the door is raised. When the mouse enters the dark compartment so that its four legs are in contact with the mesh, the door closes and electrical discharges are applied for 3 seconds. The time taken by the mouse to enter the dark compartment (STL-Tg) and the level of shock sensitivity (0=no sign; 1=surges; surge and vocalizes) are recorded. The test session is performed 24 hours after the learning session. Each mouse is placed back in the illuminated white compartment. After 5 seconds, the door is raised, the latency time (STL-R), i.e. the time it takes the mouse to go into the dark compartment, is measured. The maximum time is 300 seconds.
Test [2] shares this test system. In words: Y-labyrinth spontaneous alternation test (YMT), short-term spatial working memory, Aβ25-35 oligomer ICV intoxication model. The class given is in vivo, male Swiss OF-1 mice.
Protocol: as §1
The stock solutions of the compounds were obtained by dissolution in NaCl buffer (0.9%, vehicle) at a concentration of 2 mg/mL which corresponds to a dose of 5 mg/Kg. These stock solutions are stored at 4° C. for 2 weeks maximum.
as §2
The compounds are IP administered in a volume of 100 μL per 20 g of body mass. […] The doses of compounds mentioned in the experimental part correspond to the doses of salts of the used compounds and not to the mass equivalent of the compound itself. For each compound, the administered doses are 0.01, 0.03, 0.1, 0.3 and 1 mg/kg. In the case of the combination, the co-administered doses of donepezil and FENM were 0.03 and 0.01 mg/kg, respectively.
as §3
The spontaneous alternation test is used to study the (very short-term) spatial working memory in rodents. The labyrinth is made of opaque gray polyvinyl chloride (PVC). Each arm is 40 cm long, 13 cm high and 3 cm wide at its base and 10 cm at its top. The arms converge towards one another, with an equal angle between the different arms. In brief, each mouse is placed at the end of an arm and left free to move for an 8-minute session. The mouse entries in each of the arms, including the arm at which it was dropped, are recorded. An alternation is defined as the successive entry of the animal into three different arms.
The animal data showing extreme behaviors (percentage of alternation <20% or >90%) are not taken into account in the calculations. The attrition rate is usually 5%. Under normal conditions, a mouse will spontaneously alternate the explorations of each arm. A mouse with impaired memory and/or orientation capabilities will have its alternation percentage decreased.
Data were analyzed using unidirectional variance analyses (ANOVA, F-value), followed by a Dunnett test or non-parametric Kruskal-Wallis ANOVA (H-value) followed by a Dunn comparison test. The statistical significance levels are p<0.05, p<0.01 and p<0.001.

For the compound `NC12CC3CC(C1)CC(CCF)(C3)C2.OBr` [FENM, 3 (2-Fluoroethyl)tricyclo[3.3.1.13,7]decan-1-amine bromohydrate], the “PP (%) percentage protection” value in test [1] (0.01 mg/kg IP) is reported as 1.4 ± 18.3%; in test [1] (0.03 mg/kg IP), −12.2 ± 16.8 %; in test [1] (0.1 mg/kg IP), 27.8 ± 24.8%; in test [1] (0.3 mg/kg IP) it was 52.9 ± 14.2 %; in test [2] (0.01 mg/kg IP daily to day 7, 100% = non-intoxicated vehicle, 0% = Aβ25-35/vehicle) it was 38.5 ± 31.9%; in test [2] (0.03 mg/kg IP), 58.4 ± 20.8%. In addition, the “PP (%) percentage protection” value in test [2] (0.1 mg/kg IP) is given as 71.2 ± 33.3 %. Besides, the “effect on passive avoidance performance (latency) of intoxicated mice” value in test [1] (0.3 mg/kg or 1 mg/kg IP) was “performances that are not significantly different from the control, non-intoxicated, untreated mice”; in test [1] (doses lower than 0.3 mg/kg), “does not protect mice from mnesic disorders”. The figures for the “effect on percentage of alternation of intoxicated mice” value in test [2] (0.01 mg/kg) and in test [2] (0.03 mg/kg) were “at the limit of statistical significance” and “significantly improves the percentage of alternation”, respectively.
